Data: US8802675B2, “Neuroprotective multifunctional compounds and pharmaceutical compositions comprising them” (priority 2009, dated 2014)
Values joined by “and” are separate entries in the source; they are usually repeats but may differ in a detail not shown here. Equal entries are not always repeated. Where two headings read alike, the source gives them in different places.

Tests used:
[1] = target: T1, rat brain MAO-A (Rattus norvegicus, UniProt P21396); assay: biochemical; settings: IC50 MAO-A, rat brain homogenate in vitro; mean SEM, n=3 in triplicates
T1 construct: from tissue; host or cells: rat brain homogenate
T1 sequence (P21396 1-526): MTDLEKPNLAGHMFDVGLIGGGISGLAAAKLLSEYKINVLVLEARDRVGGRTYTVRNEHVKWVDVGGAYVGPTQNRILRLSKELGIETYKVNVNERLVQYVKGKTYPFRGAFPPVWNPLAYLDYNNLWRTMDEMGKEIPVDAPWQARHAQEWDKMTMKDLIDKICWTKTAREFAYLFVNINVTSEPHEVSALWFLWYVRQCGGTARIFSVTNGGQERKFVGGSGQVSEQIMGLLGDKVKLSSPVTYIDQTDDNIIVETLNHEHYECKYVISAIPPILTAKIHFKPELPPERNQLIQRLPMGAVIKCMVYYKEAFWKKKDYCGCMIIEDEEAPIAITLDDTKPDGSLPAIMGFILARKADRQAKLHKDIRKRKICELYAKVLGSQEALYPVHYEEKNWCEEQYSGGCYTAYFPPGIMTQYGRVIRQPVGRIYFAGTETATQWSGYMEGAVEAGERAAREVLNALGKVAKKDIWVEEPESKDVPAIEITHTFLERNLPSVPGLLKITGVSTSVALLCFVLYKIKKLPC
Experimental: (§1) Rats were decapitated and the brains were quickly taken into a pre-weighted ice-cold sucrose buffer (10 mM Tris-HCl buffer, pH 7.4, containing 0.32 M sucrose), and their weights were measured. The brains were homogenized at 0-4° C. in 0.32 M sucrose (one part tissue to 20 parts sucrose) in a Teflon glass homogenizer. The resultant homogenates were used to determine MAO activity. Protein concentration was determined with Bradford reagent at 595 nm, using bovine serum albumin as a standard.
(§2) The activity of MAO-A and MAO-B were determined by the adapted method of Tipton & Youdim (Tipton et al. 1983). Briefly, the multifunctional compound tested was added to a suitable dilution of the enzyme preparation (70 μg MAO-B and 150 μg MAO-A) in 0.05 M phosphate buffer (pH 7.4). The mixture was incubated together with 0.05 μM 1-deprenyl, a specific inhibitor of MAO-B (for determination of MAO-A activity in the presence of the test compound) or 0.05 μM clorgyline a specific inhibitor of MAO-A (for determination of MAO-B activity). […] The reaction was stopped with 2M ice-cold citric acid, and the radioactive metabolites (5-hydroxytryptaldehyde and phenylacetaldehyde) were extracted by addition of 2 ml of ethylacetate/toluene (1:1 vol/vol). The radioactivity contained in the organic phase was determined by liquid-scintillation counting in cpm units.
(§3) MAO-A and MAO-B activities were determined in rat brain homogenate in vitro following incubation with varying concentrations of the test compounds.
(§4) The results are the mean SEM, n=3 in triplicates.

[2] = target: T2, rat brain MAO-B (Rattus norvegicus, UniProt P19643); assay: biochemical; settings: IC50 MAO-B, rat brain homogenate in vitro; mean SEM, n=3 in triplicates
T2 construct: from tissue; host or cells: rat brain homogenate
T2 sequence (P19643 1-520): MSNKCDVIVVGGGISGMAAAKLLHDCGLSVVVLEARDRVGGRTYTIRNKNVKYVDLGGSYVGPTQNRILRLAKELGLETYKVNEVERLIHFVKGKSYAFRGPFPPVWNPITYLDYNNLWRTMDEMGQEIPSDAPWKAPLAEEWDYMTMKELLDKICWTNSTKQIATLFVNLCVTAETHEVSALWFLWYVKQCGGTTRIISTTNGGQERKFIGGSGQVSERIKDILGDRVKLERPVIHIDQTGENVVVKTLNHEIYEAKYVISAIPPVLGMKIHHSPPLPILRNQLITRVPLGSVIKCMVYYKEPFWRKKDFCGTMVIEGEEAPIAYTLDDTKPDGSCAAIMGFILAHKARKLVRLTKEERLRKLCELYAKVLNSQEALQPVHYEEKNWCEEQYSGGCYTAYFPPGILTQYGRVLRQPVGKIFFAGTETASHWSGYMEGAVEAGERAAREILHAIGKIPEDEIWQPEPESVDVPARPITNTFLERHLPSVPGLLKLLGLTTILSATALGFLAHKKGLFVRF
Experimental: as §1, §2, §3, §4

[3] = target: T3, butyrylcholinesterase (BuChE) (Rattus norvegicus, UniProt Q9JKC1); assay: Butyrylcholinesterase inhibition in rat brain homogenates (Ellman); format: biochemical; settings: mean SEM, n=3 in triplicates
T3 construct: total cholinesterase (ChE) and butyrylcholinesterase (BuChE) activities in rat brain homogenates; from tissue; host or cells: brain homogenate (10% w/v) of adult Wistar rats
T3 sequence (Q9JKC1 24-597): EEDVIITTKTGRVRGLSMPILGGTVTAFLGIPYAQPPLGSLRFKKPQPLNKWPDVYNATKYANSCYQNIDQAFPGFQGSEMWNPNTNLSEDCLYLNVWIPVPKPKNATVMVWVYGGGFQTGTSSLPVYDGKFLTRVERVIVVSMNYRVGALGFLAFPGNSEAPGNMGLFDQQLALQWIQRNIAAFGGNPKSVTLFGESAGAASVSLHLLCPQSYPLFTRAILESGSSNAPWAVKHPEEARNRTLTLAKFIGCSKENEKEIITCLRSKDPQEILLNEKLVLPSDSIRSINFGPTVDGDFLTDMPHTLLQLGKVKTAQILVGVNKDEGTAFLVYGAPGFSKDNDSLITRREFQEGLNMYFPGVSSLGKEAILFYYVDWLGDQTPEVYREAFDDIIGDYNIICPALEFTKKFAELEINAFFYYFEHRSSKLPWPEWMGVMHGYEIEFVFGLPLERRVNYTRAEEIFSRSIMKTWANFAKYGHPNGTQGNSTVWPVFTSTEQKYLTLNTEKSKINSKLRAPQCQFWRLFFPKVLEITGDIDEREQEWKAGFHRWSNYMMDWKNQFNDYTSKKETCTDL
Experimental: (§5) Cholinesterase activity was determined in rat brain homogenate following incubation with varying concentrations of the multifunctional pro-chelators of the invention (also referred to herein as “carbamates”).
(§6) Ellman's colorimetric method was adapted for determination of total cholinesterase (ChE) and butyrylcholinesterase (BuChE) activities in rat brain homogenates. Brain tissue from adult Wistar rats was homogenized at 2% w/v (or 10% w/v, for BuChE) in 0.1 M sodium phosphate buffer, pH 7.4, with added NaCl 58.5 g/l and Triton X-100 0.05% v/v. Aliquots of homogenate (20 μl) were incubated with the test compounds for designed time intervals in phosphate buffer pH 7.4, before addition of 5,5′-dithiobis(2-nitrobenzoic) acid and either 1 mM acetylthiocholine iodide or 10 mM butyrylthiocholine iodide (Sigma, St. Louis, Mo.). The reaction was run at 37° C. in a final volume of […] in 96-well microplates and was followed at 412 nm for 5 min with a plate reader. In every experiment, cholinesterase-independent (nonspecific) substrate hydrolysis was determined by including one experimental group treated with tacrine 30 μM. Appropriate tissue and reagent blanks were also included. Reaction velocities were determined in three or four replicates per condition; these were averaged and expressed as percent activity relative to control (solvent), after subtracting the rate of nonspecific hydrolysis.
(§7) The results are the mean SEM, n=3 in triplicates. ND—not determined.

[4] = target: T4, rat brain cholinesterase (total ChE) (Rattus norvegicus, UniProt P37136); assay: Kinetics of irreversible cholinesterase inhibition (Kitz-Wilson); format: biochemical
T4 construct: rows headed: Ki (dissociation constant for EI); other: rat brain total ChE; mean of 3-4 experiments; k+2 (carbamylation rate constant); other: from ki; rate of carba
T4 sequence (P37136 32-614): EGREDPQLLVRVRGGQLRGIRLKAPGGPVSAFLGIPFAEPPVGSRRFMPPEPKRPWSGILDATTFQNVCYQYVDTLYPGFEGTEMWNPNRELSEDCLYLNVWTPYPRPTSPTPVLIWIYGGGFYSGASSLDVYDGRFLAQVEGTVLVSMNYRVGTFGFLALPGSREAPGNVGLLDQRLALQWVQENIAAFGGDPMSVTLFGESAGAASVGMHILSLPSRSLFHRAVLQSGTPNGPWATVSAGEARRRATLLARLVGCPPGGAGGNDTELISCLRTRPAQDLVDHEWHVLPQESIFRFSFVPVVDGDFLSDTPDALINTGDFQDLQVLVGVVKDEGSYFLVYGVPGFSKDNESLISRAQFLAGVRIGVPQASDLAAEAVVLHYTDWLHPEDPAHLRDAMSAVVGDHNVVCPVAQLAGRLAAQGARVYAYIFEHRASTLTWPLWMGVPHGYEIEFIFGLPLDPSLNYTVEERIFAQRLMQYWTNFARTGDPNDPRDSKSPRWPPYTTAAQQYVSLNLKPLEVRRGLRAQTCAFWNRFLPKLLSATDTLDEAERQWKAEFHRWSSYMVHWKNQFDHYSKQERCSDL
Experimental: To determine kinetic constants of irreversible inhibition, cholinesterase from rat brain homogenates was incubated with the multifunctional compounds of the invention for designed time intervals in phosphate buffer pH 7.4.
The residual cholinesterase activity was immediately measured with the Ellman's colorimetric method after addition of 5,5′-dithiobis(2-nitrobenzoic) acid and 1 mM acetylthiocholine iodide. The inhibition kinetics were assessed according to Kitz-Wilson equation:
[formula] wherein: E represents the enzyme; I represents the intact carbamate (inhibitor); EI is the initial reversible enzyme complex; E* is the carbamylated enzyme; Ki represents the dissociation constant for EI; k+2 is the carbamylation rate constant and k+3 is the decarbamylation rate constant; kapp is the pseudo-first-order inhibition rate constant; ki, the second-order rate inhibition constant, is approximated by k+2/Ki. Under experimental condition [I]>>[E0].
According to equation (2), the logarithm of the ratio of the residual cholinesterase activity (E) and the initial cholinesterase activity (E0) is plotted against the time of incubation. The slopes of the lines representing kapp were determined by linear regression.
The slopes of the lines represent the pseudo-first-order inhibition rate constant (kapp) determined from linear regression analysis. […] The carbamylation rate constant (k+2) was obtained from the y-intercept, and the dissociation constant ([…] was obtained from the slope of the line multiplied by k+2 as described in Materials and Methods.
From these lines, the values of kapp were calculated based on Equation (2) of the Kitz-Wilson equations (see Material and Methods). […] The carbamylation rate constant k+2 is a measure of inactivation of ChE.

[5] = target: T5, total cholinesterase (ChE) (Rattus norvegicus, UniProt P37136); assay: Total cholinesterase inhibition in rat brain homogenates (Ellman); format: biochemical; settings: read-out: percent inhibition Total ChE
T5 sequence (P37136 32-614): T4 sequence (P37136 32-614)
Experimental: as §5, §6, §7

[6] = test system: rat brain cholinesterase (total ChE); settings: cited from earlier work

SMILES	IC50 [1]	IC50 [2] [µM]	IC50 [3] [µM]	potency in inhibiting ChE relative to rivastigmine ([4]; from ki)	kinact ([4]; pH 7.4, read-out: k+2 (carbamylation rate constant)) [s⁻¹]	kinact/KI ([4]; pH 7.4, read-out: ki (second-order rate inhibition constant, approximated by k+2/Ki)) [M⁻¹ s⁻¹]	inhibition at 1 µM [5] [%]	k+2 (carbamylation rate constant) ([6]; Data from ref.)	ki (second-order rate inhibition constant) ([6]; Data from ref.)	k+2 (carbamylation rate constant) ([6]; Data from ref., listed as rivastigmine) [min⁻¹]	Ki ([6]; rivastigmine, data from ref., read-out: Ki, affinity to total ChE) [µM]
C#CCN(C)Cc1ccc(OC(=O)N2CCCCC2)c2ncccc12 [Compound 6, 5-((methyl(propargyl)amino)methyl)quinolin-8-yl piperidine-1-carboxylate]	0.0047 to 0.02 µM and 0.0047 µM	1.86	45.7 ± 5.94	as potent	0.00117	77.3	–	–	–	–	–
CCN(C)C(=O)Oc1cccc([C@H](C)N(C)C)c1 [Rivastigmine, (S)-N-ethyl-N-methyl-3-[1-(dimethylamino)ethyl]-phenyl carbamate]	–	–	–	–	–	–	62	0.25^b min^−1	4.54 × 10^3b M^−1 min^−1	0.25	55
